The test system of experiment [1] is BAF3 EGFR L858R-T790M PURO POOL. Nature of the experiment: Cell proliferation (MTT), BAF3 EGFR L858R-T790M. The experiment is classed as cell-based. The settings on record: Ba/F3 EGFR. The protocol: (§1) We also assessed the antiproliferative activity of compounds of Formula (I) against BaF3 cells expressing the target EGFR mutations or control (i.e., cell lines expressing wildtype EGFR). Assays were conducted using MTT.

Experiment [2] has as its target human EGFR (native sequence) (Homo sapiens, UniProt P00533). Nature of the experiment: Kinase inhibition, human EGFR (native sequence). The experiment is classed as biochemical. The settings on record: 10 μM ATP; 10 pt curves, 3 μM top concentration (singlicates). The protocol: (§2) Kinase inhibitory activity of the compounds was measured against human EGFR (native sequence) and against EGFR bearing the L858R mution and the L858R/T790M double mutation (EGFR, L858R, and L858R/T790M, respectively in Table 1). Additional assays can be conducted with EGFR deletion mutants such as delE746-A750 with or without the additional T790M mutation. Assay conditions included 10 pt curves with 3 μM top concentration (singlicates) and 10 μM ATP.

Another experiment concerns BAF3 PARENTAL
Nature of the experiment: Cell proliferation (MTT), BAF3 parental. The experiment is classed as cell-based. As to conditions: Mus musculus. As to the method:
as §1

Experiment [3] addresses BAF3 EGFR DEL T790M PURO POOL (Homo sapiens, UniProt P00533, DEL746-750/T790M, cells depend on it). Nature of the experiment: Cell proliferation (MTT), BAF3 EGFR DEL T790M. In kind it is cell-based. As to the method: as §1
Experiment [4] addresses EGFR bearing the L858R mution (Homo sapiens, UniProt P00533, L858R). The experiment in a line: Kinase inhibition, EGFR L858R. The settings on record: 10 μM ATP; 10 pt curves, 3 μM top concentration (singlicates). The experiment is classed as biochemical. As to the method:
as §2

Experiment [5] deals with EGFR bearing the L858R/T790M double mutation (Homo sapiens, UniProt P00533, L858R/T790M). Nature of the experiment: Kinase inhibition, EGFR L858R/T790M. The experiment is classed as biochemical. As to conditions: 10 μM ATP; 10 pt curves, 3 μM top concentration (singlicates). The protocol: as §2

SMILES strings stand for the structures.

One may read the IC50 as the concentration that inhibits the measured activity by half.

human EGFR (native sequence), sequence (P00533 25-1210): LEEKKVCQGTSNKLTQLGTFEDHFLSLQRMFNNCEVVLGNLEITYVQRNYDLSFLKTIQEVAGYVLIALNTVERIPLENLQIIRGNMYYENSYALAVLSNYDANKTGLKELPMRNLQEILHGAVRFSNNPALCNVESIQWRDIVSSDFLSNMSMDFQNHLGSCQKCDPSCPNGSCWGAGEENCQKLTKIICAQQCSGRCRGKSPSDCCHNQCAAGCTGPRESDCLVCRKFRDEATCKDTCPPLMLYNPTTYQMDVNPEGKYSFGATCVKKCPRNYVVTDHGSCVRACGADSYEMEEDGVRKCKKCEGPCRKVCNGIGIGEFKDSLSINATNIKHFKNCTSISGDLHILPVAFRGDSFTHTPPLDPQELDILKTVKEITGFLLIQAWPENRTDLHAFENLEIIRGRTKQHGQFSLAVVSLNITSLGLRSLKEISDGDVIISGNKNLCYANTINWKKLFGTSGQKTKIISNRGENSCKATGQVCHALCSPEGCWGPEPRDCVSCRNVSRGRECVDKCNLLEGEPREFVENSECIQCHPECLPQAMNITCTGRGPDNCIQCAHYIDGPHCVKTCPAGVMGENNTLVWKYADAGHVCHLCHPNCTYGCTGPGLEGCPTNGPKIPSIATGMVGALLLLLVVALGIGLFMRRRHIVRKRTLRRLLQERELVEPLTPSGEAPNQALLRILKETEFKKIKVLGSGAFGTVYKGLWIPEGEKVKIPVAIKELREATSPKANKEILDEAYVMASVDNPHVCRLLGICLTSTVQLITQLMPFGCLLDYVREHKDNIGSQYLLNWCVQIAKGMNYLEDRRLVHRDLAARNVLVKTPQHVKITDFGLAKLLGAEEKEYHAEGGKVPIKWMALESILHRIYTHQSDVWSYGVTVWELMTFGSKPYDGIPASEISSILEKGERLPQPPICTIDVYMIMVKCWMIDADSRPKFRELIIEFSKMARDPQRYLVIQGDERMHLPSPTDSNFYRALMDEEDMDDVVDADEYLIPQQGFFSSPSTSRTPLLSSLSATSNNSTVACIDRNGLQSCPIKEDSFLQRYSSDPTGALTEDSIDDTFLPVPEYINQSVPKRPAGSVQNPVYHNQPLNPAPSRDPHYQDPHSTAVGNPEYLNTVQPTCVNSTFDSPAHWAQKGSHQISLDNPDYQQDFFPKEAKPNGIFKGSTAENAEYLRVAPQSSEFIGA
EGFR bearing the L858R/T790M double mutation, sequence (P00533 25-1210 T790M/L858R): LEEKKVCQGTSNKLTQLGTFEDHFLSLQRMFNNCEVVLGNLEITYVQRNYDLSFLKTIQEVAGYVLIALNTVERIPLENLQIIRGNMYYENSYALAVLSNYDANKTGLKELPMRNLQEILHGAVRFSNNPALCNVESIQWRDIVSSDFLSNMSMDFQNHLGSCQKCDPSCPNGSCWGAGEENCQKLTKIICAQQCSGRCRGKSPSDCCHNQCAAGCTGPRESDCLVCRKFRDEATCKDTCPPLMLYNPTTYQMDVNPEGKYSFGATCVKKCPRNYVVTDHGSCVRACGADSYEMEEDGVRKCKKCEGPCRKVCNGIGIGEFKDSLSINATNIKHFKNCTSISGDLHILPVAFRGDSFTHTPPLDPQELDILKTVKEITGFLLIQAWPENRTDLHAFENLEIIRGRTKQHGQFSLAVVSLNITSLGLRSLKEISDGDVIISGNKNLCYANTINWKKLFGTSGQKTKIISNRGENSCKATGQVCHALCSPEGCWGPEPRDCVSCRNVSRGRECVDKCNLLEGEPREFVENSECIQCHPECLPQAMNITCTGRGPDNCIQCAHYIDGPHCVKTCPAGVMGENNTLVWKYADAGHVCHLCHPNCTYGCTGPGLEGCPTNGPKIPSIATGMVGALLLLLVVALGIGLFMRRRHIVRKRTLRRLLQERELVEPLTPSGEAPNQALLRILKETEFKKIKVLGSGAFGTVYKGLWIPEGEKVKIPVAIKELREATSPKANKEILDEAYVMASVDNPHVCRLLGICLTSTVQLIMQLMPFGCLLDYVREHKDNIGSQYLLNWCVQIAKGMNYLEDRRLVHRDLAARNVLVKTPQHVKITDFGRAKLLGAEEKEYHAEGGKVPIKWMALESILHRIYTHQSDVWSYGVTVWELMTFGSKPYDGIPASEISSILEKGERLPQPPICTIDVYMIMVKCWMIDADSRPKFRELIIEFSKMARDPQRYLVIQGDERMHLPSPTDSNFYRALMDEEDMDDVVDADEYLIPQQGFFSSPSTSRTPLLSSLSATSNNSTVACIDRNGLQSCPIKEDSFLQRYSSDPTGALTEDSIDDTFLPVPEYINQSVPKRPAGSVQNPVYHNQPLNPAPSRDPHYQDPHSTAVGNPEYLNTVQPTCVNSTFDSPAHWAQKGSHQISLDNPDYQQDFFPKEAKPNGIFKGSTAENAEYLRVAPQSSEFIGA
BAF3 EGFR DEL T790M PURO POOL, sequence (P00533 with tags, fused parts or gaps DEL746-750/T790M): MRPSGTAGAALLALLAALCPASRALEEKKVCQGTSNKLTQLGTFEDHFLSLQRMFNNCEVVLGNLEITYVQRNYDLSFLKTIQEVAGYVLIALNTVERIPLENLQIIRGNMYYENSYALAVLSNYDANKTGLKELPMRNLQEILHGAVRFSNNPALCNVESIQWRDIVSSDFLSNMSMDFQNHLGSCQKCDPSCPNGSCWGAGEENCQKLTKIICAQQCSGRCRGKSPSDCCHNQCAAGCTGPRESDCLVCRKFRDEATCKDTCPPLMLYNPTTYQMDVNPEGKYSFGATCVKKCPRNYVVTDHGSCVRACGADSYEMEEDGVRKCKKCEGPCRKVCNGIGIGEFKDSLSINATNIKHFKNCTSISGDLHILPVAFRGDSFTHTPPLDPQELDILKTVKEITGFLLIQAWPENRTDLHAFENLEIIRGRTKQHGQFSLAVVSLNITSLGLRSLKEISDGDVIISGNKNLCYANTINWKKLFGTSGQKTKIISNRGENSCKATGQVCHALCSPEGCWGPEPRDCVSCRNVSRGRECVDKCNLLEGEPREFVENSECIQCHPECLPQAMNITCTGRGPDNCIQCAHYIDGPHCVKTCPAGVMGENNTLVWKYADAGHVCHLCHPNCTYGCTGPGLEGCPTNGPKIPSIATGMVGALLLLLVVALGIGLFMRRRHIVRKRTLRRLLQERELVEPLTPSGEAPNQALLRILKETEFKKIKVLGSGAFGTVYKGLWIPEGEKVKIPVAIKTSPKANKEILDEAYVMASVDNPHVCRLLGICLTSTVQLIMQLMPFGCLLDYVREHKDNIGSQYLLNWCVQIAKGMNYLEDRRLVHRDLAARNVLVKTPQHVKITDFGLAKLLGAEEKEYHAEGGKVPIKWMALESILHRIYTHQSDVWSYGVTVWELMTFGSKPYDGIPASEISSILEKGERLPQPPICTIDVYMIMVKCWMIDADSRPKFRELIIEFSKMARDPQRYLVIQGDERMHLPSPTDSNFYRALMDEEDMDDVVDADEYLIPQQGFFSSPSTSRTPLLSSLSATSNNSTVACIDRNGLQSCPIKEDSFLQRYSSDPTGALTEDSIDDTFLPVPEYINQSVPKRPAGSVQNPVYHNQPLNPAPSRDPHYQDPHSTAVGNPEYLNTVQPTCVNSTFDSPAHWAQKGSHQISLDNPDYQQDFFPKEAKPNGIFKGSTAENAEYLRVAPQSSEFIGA
EGFR bearing the L858R mution, sequence (P00533 25-1210 L858R): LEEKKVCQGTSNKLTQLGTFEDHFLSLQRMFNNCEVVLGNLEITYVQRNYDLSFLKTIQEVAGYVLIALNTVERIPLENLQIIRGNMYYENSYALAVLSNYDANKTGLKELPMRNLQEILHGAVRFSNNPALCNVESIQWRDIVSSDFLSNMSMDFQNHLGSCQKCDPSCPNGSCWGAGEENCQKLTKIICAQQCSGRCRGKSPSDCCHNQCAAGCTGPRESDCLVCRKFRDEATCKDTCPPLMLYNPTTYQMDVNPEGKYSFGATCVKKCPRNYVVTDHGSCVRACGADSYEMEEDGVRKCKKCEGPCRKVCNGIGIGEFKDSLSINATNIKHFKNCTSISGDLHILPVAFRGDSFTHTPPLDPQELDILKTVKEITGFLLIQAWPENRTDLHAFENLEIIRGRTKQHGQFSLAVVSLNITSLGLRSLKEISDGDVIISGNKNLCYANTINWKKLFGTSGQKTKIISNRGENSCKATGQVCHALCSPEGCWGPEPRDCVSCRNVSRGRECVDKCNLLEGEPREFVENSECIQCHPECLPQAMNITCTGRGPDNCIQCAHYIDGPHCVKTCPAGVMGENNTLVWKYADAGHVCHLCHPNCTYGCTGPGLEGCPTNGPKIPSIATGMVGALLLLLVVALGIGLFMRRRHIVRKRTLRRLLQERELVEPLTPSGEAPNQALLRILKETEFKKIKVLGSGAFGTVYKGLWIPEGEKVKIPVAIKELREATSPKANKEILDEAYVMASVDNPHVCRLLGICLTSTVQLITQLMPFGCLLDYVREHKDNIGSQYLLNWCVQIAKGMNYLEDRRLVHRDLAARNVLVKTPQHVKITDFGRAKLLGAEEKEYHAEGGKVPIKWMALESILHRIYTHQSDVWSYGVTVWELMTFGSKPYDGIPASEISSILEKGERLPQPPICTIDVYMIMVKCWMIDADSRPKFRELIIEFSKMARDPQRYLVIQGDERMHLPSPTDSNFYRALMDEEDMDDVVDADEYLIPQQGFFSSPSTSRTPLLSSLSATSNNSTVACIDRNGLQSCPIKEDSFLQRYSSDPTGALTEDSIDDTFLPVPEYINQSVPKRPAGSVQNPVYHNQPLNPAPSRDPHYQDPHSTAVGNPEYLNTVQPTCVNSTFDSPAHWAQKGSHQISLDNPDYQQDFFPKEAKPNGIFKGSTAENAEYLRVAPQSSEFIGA

With `C=CC(=O)Nc1cc(Nc2ncc(Cl)c(Nc3cccc(C)c3P(=O)(CC)CC)n2)c(OC)cc1F` [Example 49, N-(5-((5-chloro-4-((2-(diethylphosphoryl)-3-methylphenyl)amino)pyrimidin-2-yl)amino)-2-fluoro-4-methoxyphenyl)acrylamide], the IC50 was < 51 nM in experiment [1]; < 51 nM in experiment [2]; ≥ 250 nM in the experiment with BAF3 PARENTAL; < 51 nM in experiment [3]; < 51 nM in experiment [4]; < 51 nM in experiment [5].
Regarding `C=CC(=O)Nc1ccc(OC)c(Nc2ncc(Cl)c(Nc3ccc(F)cc3P(C)(C)=O)n2)c1` [Example 54, N-(3-((5-chloro-4-((2-(dimethylphosphoryl)-4-fluorophenyl)amino)pyrimidin-2-yl)amino)-4-methoxyphenyl)acrylamide], the IC50 in experiment [1] is < 51 nM; in experiment [2], 101 to 250 nM; in the experiment with BAF3 PARENTAL it was ≥ 250 nM; in experiment [3], < 51 nM; in experiment [4] it was < 51 nM; in experiment [5] it was < 51 nM.
Regarding `C=CC(=O)Nc1cc(Nc2ncc(Cl)c(Nc3ccccc3P(C)(C)=O)n2)c(OC)cc1O[C@H](COC)CN(CC)CC` (stereo in doubt) [Example 30, rac-(R)—N-(5-((5-chloro-4-((2-(dimethylphosphoryl)phenyl)amino)pyrimidin-2-yl)amino)-2-((1-(diethylamino)-3-methoxypropan-2-yl)oxy)-4-methoxyphenyl)acrylamide], the IC50 in experiment [1] was < 51 nM; in experiment [2], < 51 nM; with BAF3 PARENTAL, ≥ 250 nM; in experiment [3], < 51 nM; in experiment [4], < 51 nM; in experiment [5], < 51 nM.
Consider `COc1cc(P(C)(C)=O)ccc1Nc1ncc(Cl)c(Oc2cccc(NC(=O)/C=C/CN(C)C)c2)n1` [Example 51, (E)-N-(3-((5-chloro-2-((4-(dimethylphosphoryl)-2-methoxyphenyl)amino)pyrimidin-4-yl)oxy)phenyl)-4-(dimethylamino)but-2-enamide], for which the concentration for half-maximal inhibition (IC50) was ≥ 250 nM in experiment [1]; 51 to 100 nM in experiment [2]; ≥ 250 nM in the experiment on BAF3 PARENTAL; ≥ 250 nM in experiment [3]; < 51 nM in experiment [4]; < 51 nM in experiment [5].
Turning to `C=CC(=O)Nc1cc(Nc2ncc(Cl)c(Nc3ccccc3P(C)(C)=O)n2)c(OC)cc1OC` [Example 20, N-(5-((5-chloro-4-((2-(dimethylphosphoryl)phenyl)amino)pyrimidin-2-yl)amino)-2,4-dimethoxyphenyl)acrylamide], the IC50 is 101 to 250 nM in experiment [1]; ≥ 250 nM in experiment [2]; ≥ 250 nM in the experiment on BAF3 PARENTAL; < 51 nM in experiment [3]; < 51 nM in experiment [4]; < 51 nM in experiment [5].
Regarding `C=CC(=O)N(CCCN(C)C)c1ccc(OC)c(Nc2ncc(Cl)c(Nc3ccccc3P(C)(C)=O)n2)c1` [Example 21, N-(3-((5-chloro-4-((2-(dimethylphosphoryl)phenyl)amino)pyrimidin-2-yl)amino)-4-methoxyphenyl)-N-(3-(dimethylamino)propyl)acrylamide], the IC50 in experiment [1] was ≥ 250 nM; in experiment [2], ≥ 250 nM; in the experiment with BAF3 PARENTAL, ≥ 250 nM; in experiment [3], 101 to 250 nM; in experiment [4], 101 to 250 nM; in experiment [5], 51 to 100 nM.
For the molecule `COc1cc(N2CCOCC2)c(NC(=O)C2CO2)cc1Nc1ncc(Cl)c(Nc2ccccc2P(C)(C)=O)n1` (stereo not drawn) [Example 59, N-(5-((5-chloro-4-((2-(dimethylphosphoryl)phenyl)amino)pyrimidin-2-yl)amino)-4-methoxy-2-morpholinophenyl)oxirane-2-carboxamide], the IC50 in experiment [1] was 101 to 250 nM; in experiment [2], < 51 nM; in the experiment on BAF3 PARENTAL, ≥ 250 nM; in experiment [3], < 51 nM; in experiment [4] it was < 51 nM; in experiment [5], < 51 nM.
As to `COc1ccc(NC(=O)C2CO2)cc1Nc1ncc(Cl)c(Nc2ccccc2P(C)(C)=O)n1` (stereo not drawn) [Example 58, N-(3-((5-chloro-4-((2-(dimethylphosphoryl)phenyl)amino)pyrimidin-2-yl)amino)-4-methoxyphenyl)oxirane-2-carboxamide], the IC50 is < 51 nM in experiment [1]; < 51 nM in experiment [2]; ≥ 250 nM in the experiment on BAF3 PARENTAL; < 51 nM in experiment [3]; < 51 nM in experiment [4]; < 51 nM in experiment [5].
For the molecule `C=CC(=O)Nc1ccc(OC)c(Nc2ncc(F)c(Nc3ccccc3P(C)(C)=O)n2)c1` [Example 11, N-(3-((4-((2-(dimethylphosphoryl)phenyl)amino)-5-fluoropyrimidin-2-yl)amino)-4-methoxyphenyl)acrylamide], the IC50 was 101 to 250 nM in experiment [1]; 101 to 250 nM in experiment [2]; ≥ 250 nM in the experiment on BAF3 PARENTAL; 51 to 100 nM in experiment [3]; < 51 nM in experiment [4]; < 51 nM in experiment [5].
Take `C=CC(=O)Nc1cc(Nc2ncc(Cl)c(Nc3ccccc3P(C)(C)=O)n2)c(OC)cc1OCCN(C)CCOC` [Example 39, N-(5-((5-chloro-4-((2-(dimethylphosphoryl)phenyl)amino)pyrimidin-2-yl)amino)-4-methoxy-2-(2-((2-methoxyethyl)(methyl)amino)ethoxy)phenyl)acrylamide]: the 50% inhibitory concentration (IC50) in experiment [1] was < 51 nM; in experiment [2], < 51 nM; in the experiment with BAF3 PARENTAL, ≥ 250 nM; in experiment [3] it was < 51 nM; in experiment [4], < 51 nM; in experiment [5], < 51 nM.
As to `C=CC(=O)Nc1ccc(OC)c(Nc2ncc(Cl)c(Nc3cccc(C)c3P(=O)(CC)CC)n2)c1` [Example 50, N-(3-((5-chloro-4-((2-(diethylphosphoryl)-3-methylphenyl)amino)pyrimidin-2-yl)amino)-4-methoxyphenyl)acrylamide], the half-maximal inhibitory concentration (IC50) in experiment [1] is < 51 nM; in experiment [2] it was < 51 nM; in the experiment on BAF3 PARENTAL, ≥ 250 nM; in experiment [3], < 51 nM; in experiment [4], < 51 nM; in experiment [5], < 51 nM.
On to `C=CC(=O)Nc1ccc(OC)c(Nc2ncc(Cl)c(Nc3cccc(F)c3P(C)(C)=O)n2)c1` [Example 53, N-(3-((5-chloro-4-((2-(dimethylphosphoryl)-3-fluorophenyl)amino)pyrimidin-2-yl)amino)-4-methoxyphenyl)acrylamide], for which the IC50 in experiment [1] was < 51 nM; in experiment [2] it was 51 to 100 nM; in the experiment on BAF3 PARENTAL it was ≥ 250 nM; in experiment [3] it was < 51 nM; in experiment [4], < 51 nM; in experiment [5], < 51 nM.
`C=CC(=O)Nc1cc(Nc2ncc(Cl)c(Nc3ccccc3P(C)(C)=O)n2)c(OC)cc1N(C)CCN(CC)CC` [Example 33, N-(5-((5-chloro-4-((2-(dimethylphosphoryl)phenyl)amino)pyrimidin-2-yl)amino)-2-((2-(diethylamino)ethyl)(methyl)amino)-4-methoxyphenyl)acrylamide]: the IC50 in experiment [1] is < 51 nM; in experiment [2] it was < 51 nM; with BAF3 PARENTAL it was ≥ 250 nM; in experiment [3] it was < 51 nM; in experiment [4] it was < 51 nM; in experiment [5], < 51 nM.
Consider `C=CC(=O)Nc1cccc(Oc2nc(Nc3ccc(P(C)(C)=O)cc3OC)ncc2Cl)c1` [Example 9, N-(3-((5-chloro-2-((4-(dimethylphosphoryl)-2-methoxyphenyl)amino)pyrimidin-4-yl)oxy)phenyl)acrylamide], for which the IC50 in experiment [1] is 51 to 100 nM; in experiment [2], 101 to 250 nM; in the experiment with BAF3 PARENTAL, ≥ 250 nM; in experiment [3] it was 51 to 100 nM; in experiment [4] it was < 51 nM; in experiment [5] it was < 51 nM.
On to `C=CC(=O)Nc1ccc(OC)c(Nc2ncc(Br)c(Nc3ccccc3P(C)(C)=O)n2)c1` [Example 12, N-(3-((5-bromo-4-((2-(dimethylphosphoryl)phenyl)amino)pyrimidin-2-yl)amino)-4-methoxyphenyl)acrylamide], for which the IC50 in experiment [1] is < 51 nM; in experiment [2], < 51 nM; with BAF3 PARENTAL, ≥ 250 nM; in experiment [3] it was < 51 nM; in experiment [4], < 51 nM; in experiment [5], < 51 nM.
Regarding `C=C(CN(C)C)C(=O)Nc1ccc(OC)c(Nc2ncc(Cl)c(Nc3ccccc3P(C)(C)=O)n2)c1` [Example 17, N-(3-((5-chloro-4-((2-(dimethylphosphoryl)phenyl)amino)pyrimidin-2-yl)amino)-4-methoxyphenyl)-2-((dimethylamino)methyl)acrylamide], the IC50 was < 51 nM in experiment [1]; < 51 nM in experiment [2]; ≥ 250 nM in the experiment with BAF3 PARENTAL; < 51 nM in experiment [3]; < 51 nM in experiment [4]; < 51 nM in experiment [5].
With `COc1ccc(NC(=O)C2(C)CO2)cc1Nc1ncc(Cl)c(Nc2ccccc2P(C)(C)=O)n1` (stereo not drawn) [Example 10, N-(3-((5-chloro-4-((2-(dimethylphosphoryl)phenyl)amino)pyrimidin-2-yl)amino)-4-methoxyphenyl)-2-methyloxirane-2-carboxamide], the 50% inhibitory concentration (IC50) in experiment [1] was < 51 nM; in experiment [2], < 51 nM; in the experiment with BAF3 PARENTAL, ≥ 250 nM; in experiment [3], < 51 nM; in experiment [4] it was < 51 nM; in experiment [5], < 51 nM.

The values are drawn from patent US9834518B2, “Compounds for inhibiting cell proliferation in EGFR-driven cancers” (ARIAD Pharmaceuticals, Inc., priority 2011, dated 2017).
